From PMC12592400, “A unique inhibitor conformation selectively targets the DNA polymerase PolC of Gram-positive priority pathogens” (Nature Communications, 2025)
Values joined by “and” are separate entries in the source; they are usually repeats but may differ in a detail not shown here. Identical values can stand only once.

Experiments:
[1] = tested on: E. faecium PolC^F1276S (exonuclease-inactivated); test: Real-time DNA primer extension assay; type: biochemical, Enterococcus faecium; conditions: versus wild-type PolC
Description: (§1) The genes for PolC (locus_tag: MIBBHLJO_01574) and DnaE (locus_tag: MIBBHLJO_00911) from E. faecium ATCC 700221 were codon-optimized for expression in E. coli and synthesized in vector pET28b by Twist Bioscience (San Francisco, CA). Expression constructs for variant PolC proteins were created with QuikChange Site-Directed Mutagenesis (Agilent) with oligonucleotides listed in Supplementary Table 3. F1276L, F1276S, and A1281T were introduced to assess the effect of these mutations on inhibition by ACX compounds. Mutations D972A and D974A were introduced to inactivate the polymerase activity and mutations D431A and E433A were introduced to inactivate the exonuclease activity (Fig. 1d, Supplementary Fig. 1).
(§2) Polymerase activity was monitored in real-time[31],[32] with a 42-nt long 5’ carboxyfluorescein-labelled DNA oligonucleotide template strand (DNASP8_42) annealed to a 30-nt primer oligonucleotide (oMU014). Polymerase activity in this assay is monitored by measuring fluorescence quenching of the labelled DNA template as a result of primer extension by PolC (for details see Supplementary Fig. 1b, c). Both primers were HPLC purified. Primer extension assays were performed in Reaction Buffer (see Gel-based polymerase and exonuclease assays) supplemented with 0.5 mg/mL BSA, 0.05% Tween20 and 25 uM of each dNTP (SRB) in 384-well Black Round Bottom plates (Corning 4514). The polymerase was diluted in the SRB and incubated for at least 5 min in the presence of inhibitor or solvent, with a final solvent concentration of 1%. The reaction was initiated by the addition of an equal volume of DNA substrate in SRB as described below. Fluorescence emission data was collected with a BMG Labtech PHERAstar FSX reader for 30 min at room temperature.
(§3) Compounds were dispensed with an Echo acoustic liquid handler (Beckman Coulter). All compounds were dissolved to 1 mM and 10 mM stocks in 100% DMSO and transferred to Echo LDV or PP source plates (Labcyte, Inc., CA), then dispensed to 384-well plates with a Labcyte Echo550 or Echo650 acoustic dispenser at volumes of 2.5 to 100 nL per well. […] A Mantis microfluidic liquid dispenser (Formulatrix) was used to dispense 5 µL polymerase and 5 µL substrate DNA (individually diluted in SRB) per well. […] The final concentration of DNA was 70 nM.
(§4) Data were analysed and standard error of the means (SEM) determined in Prism 8.4.2 and 10.2.3 (GraphPad). Raw time-course polymerase activity was plotted against time, with SEM of triplicates determined. The rate of activity (represented by signal quenching) was determined during the first 8 min (linear stage) by calculating the slope of fluorescence intensity change (converted to a positive value) over time (in seconds). The slopes were then normalized to percentage activity (%); per ‘replicate range’, 100% activity was defined as polymerase activity in the absence of inhibitor (polymerase control), and 0% activity was determined in the absence of polymerase (DNA signal; negative control). The SEM was determined between ‘replicate ranges’. The IC50 was determined using the dose-response (inhibition) nonlinear regression ‘[Inhibitor] vs. response (three parameters)’ without constraints.

[2] = target: T1, E. faecium PolC^F1276S (exonuclease-inactivated) (Enterococcus faecium, UniProt A0A9X4B319, D429A/E431A/F1274S); test: Real-time DNA primer extension assay; type: biochemical; conditions: for rate of activity (slope of fluorescence intensity change over time): Fig. 4b source data, F1267S
T1 sequence (A0A9X4B319 1-1450 D429A/E431A/F1274S): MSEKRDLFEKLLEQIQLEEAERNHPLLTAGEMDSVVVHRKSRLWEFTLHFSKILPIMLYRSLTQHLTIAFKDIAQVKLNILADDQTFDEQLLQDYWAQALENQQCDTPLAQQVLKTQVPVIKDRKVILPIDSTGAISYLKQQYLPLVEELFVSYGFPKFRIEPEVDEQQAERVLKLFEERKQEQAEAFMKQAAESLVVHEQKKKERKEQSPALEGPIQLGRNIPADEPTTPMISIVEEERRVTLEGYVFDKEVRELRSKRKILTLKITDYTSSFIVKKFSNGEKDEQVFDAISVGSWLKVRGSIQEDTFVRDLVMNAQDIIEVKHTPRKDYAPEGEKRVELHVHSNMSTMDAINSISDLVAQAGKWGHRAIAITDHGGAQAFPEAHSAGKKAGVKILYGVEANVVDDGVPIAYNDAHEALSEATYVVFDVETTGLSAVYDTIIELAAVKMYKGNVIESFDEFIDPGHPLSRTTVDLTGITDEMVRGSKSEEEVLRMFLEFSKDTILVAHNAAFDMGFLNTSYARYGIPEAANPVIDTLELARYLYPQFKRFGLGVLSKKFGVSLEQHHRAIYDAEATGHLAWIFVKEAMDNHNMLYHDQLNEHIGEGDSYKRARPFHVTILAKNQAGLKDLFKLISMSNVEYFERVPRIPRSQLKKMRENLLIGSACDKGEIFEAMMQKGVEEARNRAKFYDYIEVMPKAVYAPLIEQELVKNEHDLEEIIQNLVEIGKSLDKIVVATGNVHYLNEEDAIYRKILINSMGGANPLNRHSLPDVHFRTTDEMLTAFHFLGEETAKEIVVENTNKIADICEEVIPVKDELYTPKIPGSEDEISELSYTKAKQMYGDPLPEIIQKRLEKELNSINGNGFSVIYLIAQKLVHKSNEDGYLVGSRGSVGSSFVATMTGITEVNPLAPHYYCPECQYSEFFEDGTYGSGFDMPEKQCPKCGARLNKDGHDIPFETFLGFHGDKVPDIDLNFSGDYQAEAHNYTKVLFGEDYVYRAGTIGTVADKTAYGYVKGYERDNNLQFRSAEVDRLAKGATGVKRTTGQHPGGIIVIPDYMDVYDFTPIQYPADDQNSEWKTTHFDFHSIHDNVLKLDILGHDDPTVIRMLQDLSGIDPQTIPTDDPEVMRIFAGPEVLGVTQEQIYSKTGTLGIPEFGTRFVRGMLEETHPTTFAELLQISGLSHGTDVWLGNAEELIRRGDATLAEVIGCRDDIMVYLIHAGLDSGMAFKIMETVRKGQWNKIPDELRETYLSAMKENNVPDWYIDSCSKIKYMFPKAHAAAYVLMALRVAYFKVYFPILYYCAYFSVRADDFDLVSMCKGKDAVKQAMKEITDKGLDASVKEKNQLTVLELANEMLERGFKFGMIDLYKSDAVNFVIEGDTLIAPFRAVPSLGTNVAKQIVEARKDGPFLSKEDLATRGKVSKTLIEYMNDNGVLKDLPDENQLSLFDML
Description: as §1, §2, §3, §4

Compound	increase in IC50 by the F1276S mutation [1] [fold]	IC50 [2] [µM]	rate of activity (slope of fluorescence intensity change over time) ([2]; inhibitor 1 uM)	rate of activity (slope of fluorescence intensity change over time) ([2]; inhibitor 1.75 uM)	rate of activity (slope of fluorescence intensity change over time) ([2]; inhibitor 2.5 uM)	rate of activity (slope of fluorescence intensity change over time) ([2]; inhibitor 4 uM)	rate of activity (slope of fluorescence intensity change over time) ([2]; inhibitor 5.75 uM)	rate of activity (slope of fluorescence intensity change over time) ([2]; inhibitor 8.8 uM)	rate of activity (slope of fluorescence intensity change over time) ([2]; inhibitor 20 uM)	rate of activity (slope of fluorescence intensity change over time) ([2]; inhibitor 30 uM)	rate of activity (slope of fluorescence intensity change over time) ([2]; inhibitor 45 uM)	rate of activity (slope of fluorescence intensity change over time) ([2]; inhibitor 67.5 uM)	rate of activity (slope of fluorescence intensity change over time) ([2]; inhibitor 100 uM)	rate of activity (slope of fluorescence intensity change over time) ([2]; inhibitor 225 uM)	rate of activity (slope of fluorescence intensity change over time) ([2]; inhibitor 150 uM)
O=c1[nH]c(NCc2ccc3c(c2)OC(F)(F)O3)nc2c(F)nn(CCO)c12 [ACX-801, 5-(((2,2-difluorobenzo[d][1,3]dioxol-5-yl)methyl)amino)-3-fluoro-1-(2-hydroxyethyl)-1,6-dihydro-7H-pyrazolo[4,3-d]pyrimidin-7-one]	> 8	101 ± 8.8	29.5 and 29.8 and 30.7	30.8 and 30.2 and 30.4	31.6 and 32.7 and 27.4	31.4 and 30.5 and 33.1	30.4 and 30.7 and 31.4	31.4 and 31.3 and 30.8	28.6 and 27.8	22.8 and 24.4 and 24.1	18.0 and 19.1	14.6 and 12.2	10.5 and 12.0 and 13.4	6.1 and 6.2 and 5.0	–
O=c1[nH]c(NCc2ccc(Cl)c(Cl)c2)nc2ncn(CCN3CCOCC3)c12 [IBZ, N^2-(3,4-dichlorobenzyl)-7-(2-[1-morpholinyl]ethyl)guanine]	> 48	> 225	29.0 and 29.8 and 31.7	30.0 and 28.9 and 29.5	26.9 and 26.5 and 27.3	31.2 and 29.8 and 29.5	28.2	25.6 and 30.1 and 32.4	30.9 and 27.1 and 31.2	29.0 and 27.4	31.6 and 29.8 and 28.0	29.0 and 32.1 and 30.5	28.6 and 28.2	28.0 and 22.8	27.2 and 24.9 and 25.9
